Data: patent publication US20260374766A1, “METHODS FOR TREATING CANCER” (Antares Therapeutics, Inc., priority 2022, published 2026)

How the values were obtained:
[1] = molecular target: T1, p53 Y220C mutant protein (amino acid residues 94-293) (Homo sapiens, UniProt P04637, Y220C); assay: Surface Plasmon Resonance (SPR) assay, Kd_kinetic; assay type: binding; conditions: SPR, kinetic KD, p53 Y220C; read-out: SPR P53 Y220C KD kinetic
T1 construct: p53 Y220C mutant protein (amino acid residues 94-293)
Method in brief: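 Biacore 8K SPR; 16 or 20 °C; Tris 50 mM pH 7.5, NaCl 100 mM, DTT 1 mM, Brij35 0.01%, Tween-20 0.05%, DMSO 1%. Kd_kinetic by 1:1 fit.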

[2] = molecular target: T1, p53 Y220C mutant protein (amino acid residues 94-293); assay: Thermal Shift Assay (TSA), dTM; assay type: binding; conditions: thermal shift; for ΔTm at 100 µM: 100 uM compound, read-out: TSA P53 Y220C dTM (100 uM)
Method in brief: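 Sypro Orange melt (30→50 °C, 0.03 °C/s) with TM taken from a Boltzmann two-state fit. Protein (residues 94-293) at 5 μM was pre-incubated 3 h at 20 °C with compound at 10 μM or 100 μM in pH 7.4 HEPES/NaCl buffer containing 0.01% Pluronic F-127 and 1% DMSO.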

[3] = molecular target: p53 Y220C (Homo sapiens, UniProt P04637, Y220C); assay: Luciferase Reporter Assay (Luc), p53 response element, NClH1299 cells with inducible p53 Y220C; assay type: cell-based; conditions: luciferase reporter, NClH1299 inducible p53 Y220C, 6 hour; for Emax: 10 uM tool compound as positive control; for AC50: read-out: Luc P53 Y220C AC50
Method in brief: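 Cells were seeded at 5,000 per well and induced with 0.5 ug/mL doxycycline for 24 hours, then exposed to compound for 6 hours. One-Glo reagent was added, plates shaken 5 minutes at room temperature, and luminescence read immediately.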

[4] = tested on: NUGC3 p53 Y220C; assay: Cell Proliferation Assay (CellTiter-Glo, CTG), NUGC3 p53 Y220C; assay type: cell-based; conditions: Homo sapiens, NUGC-3, 120 h, CellTiter-Glo, NUGC3 p53 Y220C, 5 days
Method in brief: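 Tet-One inducible p53 Y220C or R273H constructs were stably introduced into NCI-H1299 by lentiviral transduction; NUGC3 was used as is. Cells (250-500 per well) were exposed to compound for 5 days, then CellTiter-Glo was added for 10 min at room temperature and IC50 was calculated from luminescence.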

[5] = tested on: H1299 p53 Y220C; assay: Cell Proliferation Assay (CellTiter-Glo, CTG), H1299 p53 Y220C (NClH1299-inducible p53 Y220C); assay type: cell-based; conditions: Homo sapiens, NCI-H1299, 120 h, CellTiter-Glo, H1299 p53 Y220C, 5 days
Method in brief: (§1)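 NClH1299 lines stably transduced with Tet-inducible p53 Y220C or R273H, plus NUGC3, were treated with compound for 5 days at 250-500 cells/well. IC50 derived from CellTiter-Glo luminescent signal after 10 min room-temperature incubation.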

[6] = tested on: H1299 p53 R273H; assay: Cell Proliferation Assay (CellTiter-Glo, CTG), H1299 p53 R273H (NClH1299-inducible p53 R273H); assay type: cell-based; conditions: Homo sapiens, NCI-H1299, 120 h, CellTiter-Glo, H1299 p53 R273H, 5 days
Method in brief: as §1

## CNC(=O)c1ccc(NCC#Cc2nc3c(N[C@@H]4CCN(C)C[C@@H]4F)cccn3c2CC(F)(F)F)c(OCC(F)(F)F)c1 [Example 61, 4-{[3-(8-{[(3S,4R)-3-fluoro-1-methylpiperidin-4-yl]amino}-3-(2,2,2-trifluoroethyl)imidazo[1,2-a]pyridin-2-yl)prop-2-yn-1-yl]amino}-N-methyl-3-(2,2,2-trifluoroethoxy)benzamide]
[1]
  Kd: 10 to 100 nM
[2]
  ΔTm at 100 µM: 5 to 10 °C
[3]
  Emax: 80 to 90%
  AC50: 750 to 1500 nM
[4]
  IC50: 750 to 1500 nM
[5]
  IC50: < 750 nM
[6]
  IC50: ≥ 10000 nM

## CNC(=O)c1ccc(NCC#Cc2nc3c(N[C@@H]4CCN(C)C[C@@H]4F)cccn3c2CC(F)(F)F)c(OCCOC)c1 [Example 62, 4-{[3-(8-{[(3S,4R)-3-fluoro-1-methylpiperidin-4-yl]amino}-3-(2,2,2-trifluoroethyl)imidazo[1,2-a]pyridin-2-yl)prop-2-yn-1-yl]amino}-3-(2-methoxyethoxy)-N-methylbenzamide]
[1]
  Kd: < 10 nM
[2]
  ΔTm at 100 µM: ≥ 10 °C
[3]
  Emax: 70 to 80%
  AC50: 750 to 1500 nM
[4]
  IC50: 750 to 1500 nM
[5]
  IC50: 750 to 1500 nM
[6]
  IC50: ≥ 10000 nM

## COc1cc(S(N)(=O)=O)ccc1NCC#Cc1nc2c(N[C@@H]3CCN(C)C[C@@H]3F)cccn2c1CC(F)(F)F [Example 63, 4-{[3-(8-{[(3S,4R)-3-fluoro-1-methylpiperidin-4-yl]amino}-3-(2,2,2-trifluoroethyl)imidazo[1,2-a]pyridin-2-yl)prop-2-yn-1-yl]amino}-3-methoxybenzenesulfonamide]
[1]
  Kd: 10 to 100 nM
[2]
  ΔTm at 100 µM: ≥ 10 °C
[3]
  Emax: 70 to 80%
  AC50: 1500 to 3000 nM
[4]
  IC50: 750 to 1500 nM
[5]
  IC50: 750 to 1500 nM
[6]
  IC50: ≥ 10000 nM

## CNS(=O)(=O)c1ccc(NCC#Cc2nc3c(N[C@@H]4CCN(C)C[C@@H]4F)cccn3c2CC(F)(F)F)c(OC)c1 [Example 64, 4-{[3-(8-{[(3S,4R)-3-fluoro-1-methylpiperidin-4-yl]amino}-3-(2,2,2-trifluoroethyl)imidazo[1,2-a]pyridin-2-yl)prop-2-yn-1-yl]amino}-3-methoxy-N-methylbenzenesulfonamide]
[1]
  Kd: < 10 nM
[2]; 10 uM compound, read-out: TSA P53 Y220C dTM (10 uM)
  ΔTm at 10 µM: ≥ 10 °C
[2]
  ΔTm at 100 µM: ≥ 10 °C
[3]
  Emax: 70 to 80%
  AC50: 750 to 1500 nM
[4]
  IC50: < 750 nM
[5]
  IC50: < 750 nM
[6]
  IC50: 8000 to 10000 nM

## COc1cc(S(=O)(=O)N(C)C)ccc1NCC#Cc1nc2c(N[C@@H]3CCN(C)C[C@@H]3F)cccn2c1CC(F)(F)F [Example 65, 4-{[3-(8-{[(3S,4R)-3-fluoro-1-methylpiperidin-4-yl]amino}-3-(2,2,2-trifluoroethyl)imidazo[1,2-a]pyridin-2-yl)prop-2-yn-1-yl]amino}-3-methoxy-N,N-dimethylbenzenesulfonamide]
[1]
  Kd: 10 to 100 nM
[2]
  ΔTm at 100 µM: ≥ 10 °C
[3]
  Emax: 70 to 80%
  AC50: < 750 nM
[4]
  IC50: 750 to 1500 nM
[5]
  IC50: 750 to 1500 nM
[6]
  IC50: 5000 to 8000 nM

## CCS(=O)(=O)c1ccc(NCC#Cc2nc3c(N[C@@H]4CCN(C)C[C@@H]4F)cccn3c2CC(F)(F)F)c(OC)c1 [Example 66, (3S,4R)—N-[2-(3-{[4-(ethanesulfonyl)-2-methoxyphenyl]amino}prop-1-yn-1-yl)-3-(2,2,2-trifluoroethyl)imidazo[1,2-a]pyridin-8-yl]-3-fluoro-1-methylpiperidin-4-amine]
[1]
  Kd: < 10 nM
[2]
  ΔTm at 100 µM: ≥ 10 °C
[3]
  Emax: 70 to 80%
  AC50: < 750 nM
[4]
  IC50: < 750 nM
[5]
  IC50: < 750 nM
[6]
  IC50: 5000 to 8000 nM

## COc1cc(S(=O)(=O)C2CC2)ccc1NCC#Cc1nc2c(N[C@@H]3CCN(C)C[C@@H]3F)cccn2c1CC(F)(F)F [Example 67, (3S,4R)—N-[2-(3-{[4-(cyclopropanesulfonyl)-2-methoxyphenyl]amino}prop-1-yn-1-yl)-3-(2,2,2-trifluoroethyl)imidazo[1,2-a]pyridin-8-yl]-3-fluoro-1-methylpiperidin-4-amine]
[1]
  Kd: < 10 nM
[2]
  ΔTm at 100 µM: ≥ 10 °C
[3]
  Emax: 70 to 80%
  AC50: < 750 nM
[4]
  IC50: < 750 nM
[5]
  IC50: < 750 nM
[6]
  IC50: 5000 to 8000 nM

## CN1CC[C@@H](Nc2cccn3c(CC(F)(F)F)c(C#CCNc4ccc(S(C)(=O)=O)cc4F)nc23)[C@@H](F)C1 [Example 68, (3S,4R)-3-fluoro-N-(2-{3-[(2-fluoro-4-methanesulfonylphenyl)amino]prop-1-yn-1-yl}-3-(2,2,2-trifluoroethyl)imidazo [1,2-a]pyridin-8-yl)-1-methylpiperidin-4-amine]
[1]
  Kd: 10 to 100 nM
[2]
  ΔTm at 100 µM: 5 to 10 °C
[3]
  Emax: 70 to 80%
  AC50: 1500 to 3000 nM
[4]
  IC50: 1500 to 3000 nM
[5]
  IC50: 1500 to 3000 nM
[6]
  IC50: ≥ 10000 nM

## CN1CC[C@@H](Nc2cccn3c(CC(F)(F)F)c(C#CC(C)(C)O)nc23)[C@@H](F)C1 [Example 69, 4-(8-{[(3S,4R)-3-fluoro-1-methylpiperidin-4-yl]amino}-3-(2,2,2-trifluoroethyl)imidazo[1,2-a]pyridin-2-yl)-2-methylbut-3-yn-2-ol]
[1]
  Kd: 100 to 1000 nM
[2]
  ΔTm at 100 µM: 5 to 10 °C
[3]
  Emax: < 70%
  AC50: > 3000 nM
[4]
  IC50: > 3000 nM
[5]
  IC50: > 3000 nM
[6]
  IC50: ≥ 10000 nM

## C[C@@H](O)C#Cc1nc2c(N[C@@H]3CCN(C)C[C@@H]3F)cccn2c1CC(F)(F)F [Example 70, (2R)-4-(8-{[(3S,4R)-3-fluoro-1-methylpiperidin-4-yl]amino}-3-(2,2,2-trifluoroethyl)imidazo[1,2-a]pyridin-2-yl)but-3-yn-2-ol]
[1]
  Kd: 10 to 100 nM
[2]
  ΔTm at 100 µM: 5 to 10 °C
[3]
  Emax: < 70%
  AC50: > 3000 nM
[4]
  IC50: > 3000 nM
[5]
  IC50: > 3000 nM
[6]
  IC50: ≥ 10000 nM

## C[C@H](O)C#Cc1nc2c(N[C@@H]3CCN(C)C[C@@H]3F)cccn2c1CC(F)(F)F [Example 71, (2S)-4-(8-{[(3S,4R)-3-fluoro-1-methylpiperidin-4-yl]amino}-3-(2,2,2-trifluoroethyl)imidazo[1,2-a]pyridin-2-yl)but-3-yn-2-ol]
[1]
  Kd: 100 to 1000 nM
[2]
  ΔTm at 100 µM: 5 to 10 °C
[3]
  Emax: < 70%
  AC50: > 3000 nM
[4]
  IC50: > 3000 nM
[5]
  IC50: > 3000 nM
[6]
  IC50: ≥ 10000 nM

## CN1CC[C@@H](Nc2cccn3c(CC(F)(F)F)c(C#C[C@@H](O)c4ccccc4)nc23)[C@@H](F)C1 [Example 72, (1S)-3-(8-{[(3S,4R)-3-fluoro-1-methylpiperidin-4-yl]amino}-3-(2,2,2-trifluoroethyl)imidazo[1,2-a]pyridin-2-yl)-1-phenylprop-2-yn-1-ol]
[1]
  Kd: > 1000 nM
[2]
  ΔTm at 100 µM: 1 to 5 °C
[3]
  Emax: < 70%
  AC50: > 3000 nM
[4]
  IC50: 750 to 1500 nM
[5]
  IC50: 1500 to 3000 nM
[6]
  IC50: < 5000 nM

## CN1CC[C@@H](Nc2cccn3c(CC(F)(F)F)c(C#C[C@H](O)c4ccccc4)nc23)[C@@H](F)C1 [Example 73, (1R)-3-(8-{[(3S,4R)-3-fluoro-1-methylpiperidin-4-yl]amino}-3-(2,2,2-trifluoroethyl)imidazo[1,2-a]pyridin-2-yl)-1-phenylprop-2-yn-1-ol]
[1]
  Kd: 100 to 1000 nM
[2]
  ΔTm at 100 µM: 5 to 10 °C
[3]
  Emax: < 70%
  AC50: > 3000 nM
[4]
  IC50: 1500 to 3000 nM
[5]
  IC50: 1500 to 3000 nM
[6]
  IC50: < 5000 nM
